Results published in patent publication US20240199571A1, “THIOPHENE COMPOUND AND APPLICATION THEREOF” (MEDSHINE DISCOVERY INC., priority 2021, published 2024).
Where a name gives a salt, the structure may show the parent alone.

test system: not listed separately; assay: Experiment 3: pharmacokinetic evaluation in CD-1 mice (IV and oral); type: in vivo; conditions: mouse, plasma; male CD-1 mice; IV 1 mg/kg; read-out: Clearance rate CL
Method: Experiment 3: Pharmacokinetic Evaluation of Compounds
Experimental purpose: To test the pharmacokinetics of compounds in CD-1 mice in vivo
CD-1 mice (male/female, 7 to 9 weeks old, Shanghai SLAC)
The pharmacokinetic characteristics of the compounds in rodents after intravenous injection and oral administration were tested according to the standard protocol. In the experiment, the candidate compound was formulated into clear solutions, and a single intravenous injection and oral administration were given to mice. The vehicle for intravenous injection and oral administration was a mixed vehicle composed of 10% dimethyl sulfoxide and 90% hydroxypropyl β-cyclodextrin with a content of 10%. In this project, four male/female CD-1 mice were used. Two mice were injected intravenously at a dose of 1 mg/kg, and plasma samples were collected at 0.083, 0.25, 0.5, 1, 2, 4, 8, and 24 hours after administration; the other two were administered orally by gavage at a dose of 2 mg/kg, and plasma samples were collected at 0.25, 0.5, 1, 2, 4, 8, and 24 hours after administration. The samples were centrifuged at 3200 g for 10 minutes at 4° C., and plasma samples were obtained by separating the supernatant. A methanol solution containing internal standard with 20 times the volume of the sample was added thereto to precipitate the protein, and the mixture was centrifuged at 12000 g for 15 minutes at 4° C. 50 μL of the supernatant was taken and transferred to a 96-well plate and centrifuged again. The supernatant was taken for sampling. The plasma concentration was quantitatively analyzed using LC-MS/MS analysis method, and pharmacokinetic parameters, such as peak concentration (Cmax), clearance rate (CL), half-life (T1/2), volume of distribution at steady state (Vdss), area under drug-time curve (AUC0-last), bioavailability (F).

SMILES	clearance
COC1CC(n2cc3cc(-c4sc(C(=O)N5CCC[C@@H](N)C5)cc4-c4ccc(C#N)c(F)c4)ccc3n2)C1 (stereo partly shown) [Hydrochloride of compound 80]	33.7 mL/min/kg

same assay, conditions: mouse, plasma; male CD-1 mice; IV 1 mg/kg; read-out: Half life T1/2 (IV, h) (converted)

SMILES	half-life
COC1CC(n2cc3cc(-c4sc(C(=O)N5CCC[C@@H](N)C5)cc4-c4ccc(C#N)c(F)c4)ccc3n2)C1 (stereo partly shown) [Hydrochloride of compound 80]	1.93 h

same assay, conditions: mouse, plasma; male CD-1 mice; IV 1 mg/kg; read-out: Volume of distribution at steady state Vdss

SMILES	Vd
COC1CC(n2cc3cc(-c4sc(C(=O)N5CCC[C@@H](N)C5)cc4-c4ccc(C#N)c(F)c4)ccc3n2)C1 (stereo partly shown) [Hydrochloride of compound 80]	4.89 L/kg

same assay, conditions: mouse, plasma; male CD-1 mice; PO 2 mg/kg vs IV 1 mg/kg; read-out: Bioavailability F (%)

SMILES	bioavailability
COC1CC(n2cc3cc(-c4sc(C(=O)N5CCC[C@@H](N)C5)cc4-c4ccc(C#N)c(F)c4)ccc3n2)C1 (stereo partly shown) [Hydrochloride of compound 80]	31.9%

same assay, conditions: mouse, plasma; male CD-1 mice; PO 2 mg/kg; read-out: Area under drug-time curve AUC0-last PO

SMILES	AUC(0-t)
COC1CC(n2cc3cc(-c4sc(C(=O)N5CCC[C@@H](N)C5)cc4-c4ccc(C#N)c(F)c4)ccc3n2)C1 (stereo partly shown) [Hydrochloride of compound 80]	0.576 µM·h

same assay, conditions: mouse, plasma; male CD-1 mice; single dose, oral 2 mg/kg; read-out: Peak concentration Cmax

SMILES	Cmax
COC1CC(n2cc3cc(-c4sc(C(=O)N5CCC[C@@H](N)C5)cc4-c4ccc(C#N)c(F)c4)ccc3n2)C1 (stereo partly shown) [Hydrochloride of compound 80]	109 nM

biological target: human LSD1 (Homo sapiens (Human), UniProt O60341); assay: Experiment 1B: in vitro LSD1 enzyme activity, enzyme-coupled fluorescence (HRP/Amplex Red), H3(1-21)K4me2 peptide 10 μM (Reaction Biology); type: biochemical; conditions: histone H3(1-21)K4me2 peptide 10 μM
Method: Experiment 1B: Evaluation of Enzyme Activity
Testing unit: Reaction Biology Corp., USA.
The purpose of the assay was to test the in vitro inhibitory activity of the compounds against LSD1. The enzyme used in the assay was human LSD1, and the standard substrate was histone H3(1-21)K4me2 peptide (10 μM). The activity of the compounds was determined by the enzyme-coupling fluorescent method by the combined detection of H2O2 generated after the reaction of LSD1 by horseradish peroxidase (HRP) and the fluorescent reagent Amplex Red. Starting from 10 μM, the compounds were 3-fold diluted to detect the IC50 values of the compounds at 10 concentrations. The enzyme and substrate were incubated for 30 minutes before the compound was added to the substrate to start the reaction. Fluorescence detector: EnVision, excitation wavelength: Ex/Em=535/590 nM.

SMILES	IC50
CC(C)(O)CN1Cc2cc(-c3sc(C(=O)N4CCC[C@@H](N)C4)cc3-c3ccc(C#N)c(F)c3)ccc2C1=O [Compound 59]	43.1 nM
CC(C)(O)Cn1nnc2cc(-c3sc(C(=O)N4C5CCC4C(N)C5)cc3-c3ccc(C#N)c(F)c3)ccc21 (stereo not shown) [Hydrochloride of compound 16]	7.51 nM
N#Cc1ccc(-c2cc(C(=O)N3CCC[C@@H](N)C3)sc2-c2ccc(OCC(=O)O)c(F)c2)cc1F [Hydrochloride of compound 30]	122 nM
N#Cc1ccc(-c2cc(C(=O)N3CCC[C@@H](N)C3)sc2-c2ccc3c(c2)CNC3=O)cc1F [Hydrochloride of compound 46]	81.3 nM
N#Cc1ccc(-c2cc(C(=O)N3CCC[C@@H](N)C3)sc2-c2ccc(OCC(O)CO)c(F)c2)cc1F (stereo partly shown) [Hydrochloride of compound 54]	49.9 nM
Cn1cc2cc(-c3sc(C(=O)N4CCC[C@@H](N)C4)cc3-c3ccc(C#N)c(F)c3)cnc2n1 [Hydrochloride of compound 56]	109 nM
N#Cc1ccc(-c2cc(C(=O)N3CCC[C@@H](N)C3)sc2-c2ccc3c(cnn3CC(O)CO)c2)cc1F (stereo partly shown) [Hydrochloride of compound 62]	30.1 nM
N#Cc1ccc(-c2cc(C(=O)N3CCC[C@@H](N)C3)sc2-c2ccc3nn(C4CC(O)C4)cc3c2)cc1F (stereo partly shown) [Hydrochloride of compound 73]	11.8 nM
COC1CC(n2cc3cc(-c4sc(C(=O)N5CCC[C@@H](N)C5)cc4-c4ccc(C#N)c(F)c4)ccc3n2)C1 (stereo partly shown) [Hydrochloride of compound 80]	20.2 nM
N#Cc1ccc(-c2cc(C(=O)N3CCC[C@@H](N)C3)sc2-c2ccc3c(c2)nnn3CC2(O)CCC2)cc1F [Hydrochloride of compound 82]	3.01 nM
CC1(O)CC(n2cc3cc(-c4sc(C(=O)N5CCC[C@@H](N)C5)cc4-c4ccc(C#N)c(F)c4)ccc3n2)C1 (stereo partly shown) [Hydrochloride of compound 86]	16 nM

biological target: hERG potassium ion channels (Homo sapiens (Human), UniProt Q12809); assay: Experiment 4: hERG potassium ion channel inhibition, automated patch clamp (Qpatch), CHO-hERG cells; type: cell-based; conditions: highest test concentration 40 μM
Method: Experiment 4: hERG Potassium Ion Channel Inhibition Assay
Experimental purpose: To test the effects of the test examples on hERG potassium ion channels using an automated patch clamp method.
4.1.1 CHO-hERG cells were cultured in a 175 cm^2 culture flask. When the cell density grew from 60% to 80%, the culture medium was removed. The cells were washed once with 7 mL of PBS (Phosphate Buffered Saline), and then 3 mL of Detachin cell dissociation reagent was added thereto for digestion.
4.1.2 After the digestion was completed, 7 mL of culture medium was added thereto for neutralization, then the mixture was centrifuged, the supernatant was aspirated, and then 5 mL of culture medium was added thereto for resuspension to ensure a cell density of 2×10^6/mL to 5×10^6/ML.
The single-cell high-resistance sealing and whole-cell modeling formation processes were all automatically completed by the Qpatch instrument of the Shanghai Institute of Materia Medica, Chinese Academy of Sciences. After obtaining the whole-cell recording modeling, the cells were clamped at −80 mV, and before a 5-second +40 mV depolarizing stimulus was given, a 50-millisecond −50 mV prepulse was first given, then the voltage was repolarized to −50 mV and holden for 5 seconds, and finally returned to −80 mV. This voltage stimulus was applied every 15 seconds, recorded for 2 minutes, and then the extracellular fluid was recorded for 5 minutes, and then the administration process was initiated, with compound concentrations starting at the lowest test concentration. The voltage stimulus was given for 2.5 minutes for each test concentration, and after all concentrations had been continuously given, 3 μM the positive control compound, Cisapride, was given. At least 3 cells were tested per concentration (n≥3).
4.4.1 The compound stock solution was diluted with DMSO, and 20 μL of DMSO solution was added with 10 μL of the compound stock solution, and serially diluted 3-fold to 6 DMSO concentrations.
4.4.2 4 μL of 6 DMSO concentrations of compounds were taken respectively and added to 396 μL of extracellular fluid, and the mixture was diluted 100-fold to 6 intermediate concentrations, then 80 μL of 6 intermediate concentrations of compounds was taken and added to 320 μL of extracellular fluid, and the mixture was diluted 5-fold to the final test concentration.
4.4.3 The highest test concentration was 40 μM, and the concentrations were respectively 40, 13.3, 4.4, 1.48, 0.494, and 0.165 μM for a total of six concentrations.
4.4.5 The preparation of the compound was completed by the Bravo instrument throughout the dilution process.
Experimental data were analyzed by GraphPad Prism 5.0 software.

hERG potassium ion channels, sequence (Q12809 whole entry): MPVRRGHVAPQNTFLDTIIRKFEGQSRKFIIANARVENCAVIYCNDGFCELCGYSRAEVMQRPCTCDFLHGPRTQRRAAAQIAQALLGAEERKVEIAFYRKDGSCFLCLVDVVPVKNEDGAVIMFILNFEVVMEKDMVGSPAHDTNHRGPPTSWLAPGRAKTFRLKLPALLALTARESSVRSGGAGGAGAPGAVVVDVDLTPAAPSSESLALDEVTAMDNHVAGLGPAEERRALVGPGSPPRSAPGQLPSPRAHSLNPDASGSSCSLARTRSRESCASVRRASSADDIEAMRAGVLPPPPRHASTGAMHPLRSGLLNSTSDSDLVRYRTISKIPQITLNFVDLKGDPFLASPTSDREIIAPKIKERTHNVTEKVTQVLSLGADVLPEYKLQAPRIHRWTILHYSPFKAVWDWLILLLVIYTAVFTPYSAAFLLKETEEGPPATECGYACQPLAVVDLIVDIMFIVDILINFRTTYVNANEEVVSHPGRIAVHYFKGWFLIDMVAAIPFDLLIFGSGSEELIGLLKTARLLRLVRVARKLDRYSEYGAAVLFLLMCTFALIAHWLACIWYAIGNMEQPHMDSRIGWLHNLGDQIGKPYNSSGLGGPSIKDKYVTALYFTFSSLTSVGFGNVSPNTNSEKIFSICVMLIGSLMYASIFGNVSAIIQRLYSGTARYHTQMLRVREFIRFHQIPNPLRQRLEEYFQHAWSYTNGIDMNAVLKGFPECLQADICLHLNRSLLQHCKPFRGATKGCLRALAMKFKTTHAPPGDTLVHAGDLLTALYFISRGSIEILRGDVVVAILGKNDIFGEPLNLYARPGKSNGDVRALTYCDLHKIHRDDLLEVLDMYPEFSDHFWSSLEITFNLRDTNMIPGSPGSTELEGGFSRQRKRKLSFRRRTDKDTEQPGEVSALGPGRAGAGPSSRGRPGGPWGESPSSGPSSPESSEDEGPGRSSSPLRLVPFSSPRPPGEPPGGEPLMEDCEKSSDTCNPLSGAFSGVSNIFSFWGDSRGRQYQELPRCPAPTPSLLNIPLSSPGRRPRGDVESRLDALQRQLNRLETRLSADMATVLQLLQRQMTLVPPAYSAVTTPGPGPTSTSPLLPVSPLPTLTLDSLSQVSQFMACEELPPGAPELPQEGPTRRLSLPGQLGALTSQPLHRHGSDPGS

SMILES	IC50
CC(C)(O)CN1Cc2cc(-c3sc(C(=O)N4CCC[C@@H](N)C4)cc3-c3ccc(C#N)c(F)c3)ccc2C1=O [Compound 59]	> 40000 nM
CC(C)(O)Cn1nnc2cc(-c3sc(C(=O)N4C5CCC4C(N)C5)cc3-c3ccc(C#N)c(F)c3)ccc21 (stereo not shown) [Hydrochloride of compound 16]	> 40000 nM
N#Cc1ccc(-c2cc(C(=O)N3CCC[C@@H](N)C3)sc2-c2ccc(OCC(=O)O)c(F)c2)cc1F [Hydrochloride of compound 30]	> 40000 nM
N#Cc1ccc(-c2cc(C(=O)N3CCC[C@@H](N)C3)sc2-c2ccc3c(c2)CNC3=O)cc1F [Hydrochloride of compound 46]	> 40000 nM
N#Cc1ccc(-c2cc(C(=O)N3CCC[C@@H](N)C3)sc2-c2ccc(OCC(O)CO)c(F)c2)cc1F (stereo partly shown) [Hydrochloride of compound 54]	> 40000 nM
Cn1cc2cc(-c3sc(C(=O)N4CCC[C@@H](N)C4)cc3-c3ccc(C#N)c(F)c3)cnc2n1 [Hydrochloride of compound 56]	> 40000 nM
N#Cc1ccc(-c2cc(C(=O)N3CCC[C@@H](N)C3)sc2-c2ccc3c(cnn3CC(O)CO)c2)cc1F (stereo partly shown) [Hydrochloride of compound 62]	> 40000 nM
N#Cc1ccc(-c2cc(C(=O)N3CCC[C@@H](N)C3)sc2-c2ccc3nn(C4CC(O)C4)cc3c2)cc1F (stereo partly shown) [Hydrochloride of compound 73]	> 40000 nM
N#Cc1ccc(-c2cc(C(=O)N3CCC[C@@H](N)C3)sc2-c2ccc3c(c2)nnn3CC2(O)CCC2)cc1F [Hydrochloride of compound 82]	14900 nM
CC1(O)CC(n2cc3cc(-c4sc(C(=O)N5CCC[C@@H](N)C5)cc4-c4ccc(C#N)c(F)c4)ccc3n2)C1 (stereo partly shown) [Hydrochloride of compound 86]	21000 nM

test system: NCI-H1417 cells; assay: Experiment 2: inhibition of NCI-H1417 cell proliferation (CellTiter-Glo, 10 days); type: cell-based; conditions: Homo sapiens, 240 h, 10 days incubation
Method: Experiment 2: Evaluation of Inhibitory Activity on NCI-H1417 Cell Proliferation
Experimental purpose: To test the inhibitory activity of test compounds on NCI-H1417 cell proliferation.
Experimental materials: RPMI 1640 medium, fetal bovine serum, Promega CellTiter-Glo reagent. The NCI-H1417 cell line was purchased from ATCC. Envision multilabel plate reader (PerkinElmer).
Experimental method: The compounds were dissolved to 10 mM and 5-fold diluted with DMSO in the compound plates, starting with a concentration of 2 mM. 3-fold serial dilution was performed with Bravo to 10 concentrations. Then 250 nL of the compound solution was transferred to the upper and lower double duplicate wells of a blank 384 cell plate with Echo. To each well containing the transferred 250 nL of DMSO/compound was added a cell suspension of 1000 cells/50 μL per well, and the compound was diluted 200-fold, i.e., resulting in an initial working concentration of 10 μM. The cell plate was incubated in a carbon dioxide incubator for 10 days. To the cell plate was added 25 μL of Promega CellTiter-Glo reagent per well and the mixture was shaken for 10 minutes at room temperature to stabilize the luminescence signal. Readings were performed on a PerkinElmer Envision multilabel plate reader.
Data analysis: Raw data were converted into inhibition rate using the formula: (Max−Ratio)/(Max−Min)*100%. The IC50 values could then be derived from four-parameter curve fitting. (derived from 205 mode in XLFIT5, iDBS)
The compounds were tested for inhibitory activity of compounds on NCI-H1417 cell proliferation, and the results are shown in Table 3.

SMILES	IC50
CC(C)(O)CN1Cc2cc(-c3sc(C(=O)N4CCC[C@@H](N)C4)cc3-c3ccc(C#N)c(F)c3)ccc2C1=O [Compound 59]	13.2 nM
CC(C)(O)Cn1nnc2cc(-c3sc(C(=O)N4C5CCC4C(N)C5)cc3-c3ccc(C#N)c(F)c3)ccc21 (stereo not shown) [Hydrochloride of compound 16]	0.17 nM
N#Cc1ccc(-c2cc(C(=O)N3CCC[C@@H](N)C3)sc2-c2ccc3c(c2)CNC3=O)cc1F [Hydrochloride of compound 46]	19.4 nM
N#Cc1ccc(-c2cc(C(=O)N3CCC[C@@H](N)C3)sc2-c2ccc(OCC(O)CO)c(F)c2)cc1F (stereo partly shown) [Hydrochloride of compound 54]	5.11 nM
Cn1cc2cc(-c3sc(C(=O)N4CCC[C@@H](N)C4)cc3-c3ccc(C#N)c(F)c3)cnc2n1 [Hydrochloride of compound 56]	56.8 nM
N#Cc1ccc(-c2cc(C(=O)N3CCC[C@@H](N)C3)sc2-c2ccc3c(cnn3CC(O)CO)c2)cc1F (stereo partly shown) [Hydrochloride of compound 62]	11.2 nM
N#Cc1ccc(-c2cc(C(=O)N3CCC[C@@H](N)C3)sc2-c2ccc3nn(C4CC(O)C4)cc3c2)cc1F (stereo partly shown) [Hydrochloride of compound 73]	14.5 nM
COC1CC(n2cc3cc(-c4sc(C(=O)N5CCC[C@@H](N)C5)cc4-c4ccc(C#N)c(F)c4)ccc3n2)C1 (stereo partly shown) [Hydrochloride of compound 80]	16.1 nM
N#Cc1ccc(-c2cc(C(=O)N3CCC[C@@H](N)C3)sc2-c2ccc3c(c2)nnn3CC2(O)CCC2)cc1F [Hydrochloride of compound 82]	1.73 nM
CC1(O)CC(n2cc3cc(-c4sc(C(=O)N5CCC[C@@H](N)C5)cc4-c4ccc(C#N)c(F)c4)ccc3n2)C1 (stereo partly shown) [Hydrochloride of compound 86]	10.3 nM
